This is an account of results in PMC4334692 (Bioorganic & medicinal chemistry letters, 2015).

For experiment [1], the target named is T1, STEP (Homo sapiens, UniProt P54829).
T1 sequence (P54829 1-565): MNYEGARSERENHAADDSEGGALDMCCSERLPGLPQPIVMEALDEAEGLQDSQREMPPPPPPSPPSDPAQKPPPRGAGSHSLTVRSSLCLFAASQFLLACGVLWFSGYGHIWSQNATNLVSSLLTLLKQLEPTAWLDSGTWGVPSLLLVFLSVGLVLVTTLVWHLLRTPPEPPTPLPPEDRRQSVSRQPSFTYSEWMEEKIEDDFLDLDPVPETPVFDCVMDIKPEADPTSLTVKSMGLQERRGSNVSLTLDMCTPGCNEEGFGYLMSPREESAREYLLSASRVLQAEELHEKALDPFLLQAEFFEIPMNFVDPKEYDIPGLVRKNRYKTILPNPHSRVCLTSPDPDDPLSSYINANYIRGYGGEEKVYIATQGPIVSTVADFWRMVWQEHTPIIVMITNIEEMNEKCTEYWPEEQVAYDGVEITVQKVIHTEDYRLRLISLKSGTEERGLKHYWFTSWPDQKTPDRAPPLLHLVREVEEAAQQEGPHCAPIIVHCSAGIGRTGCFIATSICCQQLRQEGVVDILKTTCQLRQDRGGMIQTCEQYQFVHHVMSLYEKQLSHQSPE
Briefly: Second order rate of inactivation of STEP. The note with it: no GSH added; quadruplicate, mean ± S.D. It counts as biochemical.

Experiment [2] concerns rat cortical neurons. To be noted: ref [4]; cited from earlier work.
In experiment [3] the test system is Alzheimer's disease (AD) mice. The note with it: novel object recognition and Morris water maze tests, ref [4]; cited from earlier work.

Consider `O=C(Nc1cc(C(F)(F)F)cc2c1SSSSS2)C(F)(F)F` [Compound 23], for which the Kinact/Ki in experiment [1] is given as 161,000 ± 26,000 M^-1S^-1.

With `Cl.Nc1cc(C(F)(F)F)cc2c1SSSSS2` [TC-2153, 8-(trifluoromethyl)-1,2,3,4,5-benzopentathiepin-6-amine hydrochloride], the “phosphorylation levels of STEP substrates GluN2B, Pyk2 and ERK1/2” value in experiment [2] is listed as “enhanced the phosphorylation levels”. Further, in experiment [3], the cognitive deficits result was “reduced cognitive deficits”.
